Legend:
Type in all cases: cell-based
human fibroblasts = assay: Type-1 collagen synthesis in human fibroblasts (PICP EIA kit); conditions: 24 hours
Method: N-(1,3-dihydroxy propan-2-yl)-2-ethylhexanamide was added to a culture medium of human fibroblasts (DMEM medium, 10% fetal bovine serum, 1% antibiotics) to confirm the effect of accelerating type-1 collagen synthesis in a cell level. The measurement of the synthesized collagen was qualified using a procollagen type I C-peptide enzyme immunoassay kit (PICP EIA kit).
The human fibroblast culture medium was used to aliquot the human-derived fibroblasts (human fibroblasts) into 6 wells at 2×10^5 cell/well. After cell adhesion was confirmed, the culture medium was treated with 2 ml of N-(1,3-dihydroxy propan-2-yl)-2-ethylhexanamide as an effective component (anti-aging composition) per each well, at a concentration of 20 uM. After the culture medium was cultured in an incubator under a condition of 37° C. and 5% CO2 for 24 hours, type-1 collagen which is related to a wrinkle forming factor was measured in a cell extract. […]
The effect of accelerating type-1 collagen synthesis was confirmed in the same manner as in Example 1, except that the effective component was not used (a negative control). In addition, type-1 collagen synthesis ability relative to the negative control was calculated as a ratio, and illustrated as a rate of increase (see Table 1 and FIG. 1).

[1] = test system: human-derived fibroblasts; assay: Toxicity / cell proliferation in human-derived fibroblasts; conditions: 20 uM
[2] = test system: Artificial skin (EpiDermFT); assay: Collagen synthesis in artificial skin, Masson's Trichrome staining; conditions: 100 μl at 1% on artificial skin surface, 24 hours, versus PBS (Comparative Example 2)
Method: Artificial skin (EpiDermFT™ from MatTek, Ashland, USA) was purchased, and stabilized in an exclusive medium (EFT-400) for 18 hours. On the surface of the artificial skin, 100 μl of N-(1,3-dihydroxy propan-2-yl)-2-ethylhexanamide as an effective component (anti-aging composition) at a concentration of 1% was applied. After 24 hours, the artificial skin tissue was immobilized with 10% formaldehyde, embedded with paraffin, and sliced at 5 μm to obtain a sliced tissue which was used for confirming the effect of accelerating collagen synthesis (see FIG. 2).
The artificial skin was stabilized in the same manner as in Example 2, and coated with only 100 μl of PBS without an effective component. After 24 hours, the artificial skin tissue was immobilized with 10% formaldehyde, embedded with paraffin, and sliced at 5 μm to obtain a sliced tissue which was used for confirming the effect of accelerating collagen synthesis.

## CCCCC(CC)C(=O)NC(CO)CO (stereo not shown) [Example 1, N-(1,3-dihydroxypropan-2-yl)-2-ethylhexanamide]
Human fibroblasts; 20 uM compound, cell extract, human fibroblasts
  Type-1 collagen concentration (20 uM): 0.017
Human fibroblasts; type-1 collagen relative to negative control (Comparative Example 1), 20 uM
  Rate of increase (%): 242%
[1]
  toxicity: not toxic
[2]
  effect of accelerating collagen synthesis (Masson's Trichrome staining): accelerated collagen synthesis much more

— patent US11446223B2, “Anti-aging composition” (NEOPHARM CO., LTD., priority 2016, dated 2022)
